2 compounds from patent publication US7357930B1, “Methods and formulations for targeting infectious agents bearing host cell proteins” (Infectio Recherche Inc., priority 1999, dated 2008) can be followed below.

Like-named read-outs stand apart in the source and are kept apart here.

The test system of one series is Mono Mac 1 cell line. Put plainly: Toxicity in Mono Mac 1 cells. Conditions: data not shown. The format is cell-based.
The test system of series [1] is HIV-1-based luciferase reporter viruses with HXB2, AML-V or VSV-G env. The format is cell-based.
A further series deals with HIV-1NL4-3. The series can be described thus: AmB inhibition of HIV-1NL4-3 replication in 1G5 cells (luciferase activity).
The test system of the next series is 1G5 cells. The series can be described thus: Cellular viability / toxicity in 1G5 cells. The series is classed as cell-based. Conditions: 72 h, concentration range tested (0-10 μg/ml), data not shown.

Description for HIV-1NL4-3: In a second set of experiments, AmB and the virus were added simultaneously to cells and incubation was made during the first two hours of infection (open square).
Infection was monitored by measuring the luciferase activity. […] Thereafter, an aliquot of this cell lysate (20 μl) was mixed with 100 μl of luciferase assay buffer and activity was evaluated using a microplate luminometer.

As to `C[C@@H]1[C@H](O)[C@@H](C)/C=C/C=C/C=C/C=C/C=C/C=C/C=C/[C@H](O[C@@H]2O[C@H](C)[C@@H](O)[C@H](N)[C@@H]2O)C[C@@H]2O[C@](O)(C[C@@H](O)C[C@@H](O)[C@H](O)CC[C@@H](O)C[C@@H](O)CC(=O)O[C@H]1C)C[C@H](O)[C@H]2C(=O)O` [AmB, amphotericin B], in the series with Mono Mac 1 cell line, the toxicity result was “without significant toxicity”. Besides, the “inhibition of infection with pseudotyped virions” value in series [1] is “efficient to inhibit infection”. Moreover, in the series with HIV-1NL4-3 (1G5 cells pretreated with AmB), the “concentration giving complete inhibition of HIV-1NL4-3 replication” value is 10 μg AmB/ml. The “inhibition of viral replication” value with HIV-1NL4-3 (AmB added to infected cells after adsorption, 10 μg AmB/ml, 72 h) worked out at 40%. For the same compound, the “concentration giving complete abrogation of viral replication” value with HIV-1NL4-3 (cell-free virus pretreated 1 h at 37° C.) was found to be 5 μg AmB/ml. In addition, the viral particles inactivated result in the series on HIV-1NL4-3 (cell-free virus pretreated 1 h at 37° C. with 1 μg AmB/ml) is listed as “About 50%”. In addition, the “concentration giving complete inhibition of HIV-1 replication” value in the series on HIV-1NL4-3 (virus and AmB added simultaneously to cells (no pretreatment)) was 10 μg AmB/ml. The cellular viability result in the series with 1G5 cells is recorded as “did not affect the cellular viability”.

`CC(C)(C)NC(=O)[C@@H]1CN(Cc2cccnc2)CCN1C[C@@H](O)C[C@@H](Cc1ccccc1)C(=O)N[C@H]1c2ccccc2C[C@H]1O` [Free indinavir, indinavir]: the “Area under the curve of indinavir” value is 4.9 μmoles lipids/g tissues/h (Brachial lymph nodes); 7.6 μmoles lipids/g tissues/h (Cervical lymph nodes); 4.1 μmoles lipids/g tissues/h (Inguinal lymph nodes); 35.0 μmoles lipids/g tissues/h (Liver); 6.4 μmoles lipids/g tissues/h (Mesenteric lymph nodes); 2.3 μmoles lipids/g tissues/h (Plasma). Besides, the “Area under the curve of indinavir” value is, setting by setting: (Popliteal lymph nodes) 4.5 μmoles lipids/g tissues/h; (Spleen) 5.3 μmoles lipids/g tissues/h. Also, the “drug levels in lymphoid tissues” value (all lymphoid tissues) was “very low drug levels”.
